In US10961202B2, “Bis-benzimidazole compounds and methods of using the same” (THE SCRIPPS RESEARCH INSTITUTE, priority 2017, dated 2021):

How the values were obtained:
[1] = test system: r(CUG)12-MBNL1 complex; experiment: Inhibition of the r(CUG)12-MBNL1 complex measured by TR-FRET; assay type: biochemical; conditions: 80 nM RNA, 60 nM MBNL1-His6
[2] = test system: MBNL1 exon 5 inclusion in DM1 myotubes; experiment: Myotube splicing rescue assay (MBNL1 exon 5 inclusion); assay type: cell-based, human; conditions: 48-hour incubation

C#CCOc1cc(-c2nc3ccc(OCCCN(C)C)cc3[nH]2)ccc1-c1nc2ccc(OCCCN(C)C)cc2[nH]1 [Compound 255, 3,3′-((2,2′-(2-(prop-2-yn-1-yloxy)-1,4-phenylene)bis(1H-benzo[d]imidazole-6,2-diyl))bis(oxy))bis(N,N-dimethylpropan-1-amine)]
IC50 ([1]; Table M): 3.7 µM
MBNL1 % splicing rescue at 10 μM [2]: 89.2%

C[C@@H](NC(=O)CNCCCn1cc(CCCCN(C)CCNC(=O)c2ccc(-c3nc4cc(-c5ccc6[nH]c(-c7ccc(C(=O)NCCN(C)C)cc7)nc6c5)ccc4[nH]3)cc2)nn1)C(=O)N[C@H](C)C(=O)N[C@H](C)C(=O)N[C@H](C)C(=O)N(CCCn1cc(CCCCN(C)CCNC(=O)c2ccc(-c3nc4cc(-c5ccc6[nH]c(-c7ccc(C(=O)NCCN(C)C)cc7)nc6c5)ccc4[nH]3)cc2)nn1)CC(N)=O [Compound 460]
IC50 ([1]; Table M): 1.3 µM
MBNL1 % splicing rescue at 5 μM [2]: −21.0%

COc1cc(-c2nc3ccc(SCCCN(C)C)cc3[nH]2)c(OC)cc1-c1nc2cc(SCCCN(C)C)ccc2[nH]1 [Compound 302, 3-((2-(4-(6-((3-(dimethylamino)propyl)thio)-1H-benzo[d]imidazol-2-yl)-2,5-dimethoxyphenyl)-1H-benzo[d]imidazol-5-yl)thio)-N,N-dimethylpropan-1-amine]
IC50 ([1]; Table M): 28 µM
MBNL1 % splicing rescue at 10 μM [2]: 32.3%

CN(C)CCCOc1ccc2nc(-c3ccc(-c4ccc(-c5nc6ccc(OCCCN(C)C)cc6[nH]5)cc4)cc3)[nH]c2c1 [Compound 170]
IC50 ([1]; Table M): 6.14 µM
MBNL1 % splicing rescue at 1 μM [2]: 24.6%
MBNL1 % splicing rescue at 10 μM [2]: 85.5%

Nc1cc(-c2nc3ccc(C(=O)NCCN4CCCCC4)cc3[nH]2)ccc1-c1nc2ccc(C(=O)NCCN3CCCCC3)cc2[nH]1 [Compound 176, 2,2′-(2-amino-1,4-phenylene)bis(N-(2-(piperidin-1-yl)ethyl)-1H-benzo[d]imidazole-6-carboxamide)]
IC50 ([1]; Table M): 5.52 µM
MBNL1 % splicing rescue at 10 μM [2]: −5.0%

CN(C)CCCOc1ccc2nc(-c3ccc(-c4nc5ccc(OCCCN)cc5[nH]4)cc3)[nH]c2c1 [Compound 205, 3-((2-(4-(6-(3-aminopropoxy)-1H-benzo[d]imidazol-2-yl)phenyl)-1H-benzo[d]imidazol-6-yl)oxy)-N,N-dimethylpropan-1-amine]
IC50 ([1]; Table M): 27.3 µM
MBNL1 % splicing rescue at 10 μM [2]: −48.4%

CN1CCC(NC(=O)c2ccc(-c3nc4cc(-c5ccc6[nH]c(-c7ccc(C(=O)NC8CCN(C)CC8)cc7)nc6c5)ccc4[nH]3)cc2)CC1 [Compound 338]
IC50 ([1]; Table M): 4.56 µM
MBNL1 % splicing rescue at 1 μM [2]: 7.8%
MBNL1 % splicing rescue at 10 μM [2]: −5.3%

CN1CCN(CCNC(=O)c2ccc3nc(-c4ccc(-c5nc6ccc(C(=O)NCCN7CCCCC7)cc6[nH]5)cc4)[nH]c3c2)CC1 [Compound 44, N-(2-(4-methylpiperazin-1-yl)ethyl)-2-(4-(6-((2-(piperidin-1-yl)ethyl)carbamoyl)-1H-benzo[d]imidazol-2-yl)phenyl)-1H-benzo[d]imidazole-6-carboxamide]
IC50 ([1]; Table L): 11.9 µM
MBNL1 % splicing rescue at 1 μM [2]: 6.1%
MBNL1 % splicing rescue at 10 μM [2]: 16.4%

c1cc(-c2nc3cc(-c4ccc5[nH]c(-c6ccc(OCCN7CCCC7)cc6)nc5c4)ccc3[nH]2)ccc1OCCN1CCCC1 [Compound 347]
IC50 ([1]; Table M): 13.5 µM
MBNL1 % splicing rescue at 1 μM [2]: 78.9%
MBNL1 % splicing rescue at 10 μM [2]: 98.1%

CC(C)N(CCNC(=O)c1ccc2nc(-c3ccc(-c4nc5ccc(C(=O)NCCN(C(C)C)C(C)C)cc5[nH]4)cc3)[nH]c2c1)C(C)C [Compound 34]
IC50 ([1]; Table L): 14.5 µM
MBNL1 % splicing rescue at 1 μM [2]: 20.8%

Nc1ccc(-c2nc3cc(-c4ccc5[nH]c(-c6ccc(NC7=NCCN7C7=NCCN7)cc6)nc5c4)ccc3[nH]2)cc1 [Compound 160]
IC50 ([1]; Table L): 19.2 µM
MBNL1 % splicing rescue at 10 μM [2]: 63.0%

CN1CCC(COc2ccc3nc(-c4ccc(-c5nc6ccc(OCC7CCN(C)CC7)cc6[nH]5)c(F)c4)[nH]c3c2)CC1 [Compound 315]
IC50 ([1]; Table M): 6.1 µM
MBNL1 % splicing rescue at 10 μM [2]: 88.4%

COc1cc(-c2nc3ccc(OCCCN(C)C)cc3[nH]2)ccc1-c1nc2ccc(OCCCN(C)C)cc2[nH]1 [Compound 293]
IC50 ([1]; Table M): 18.2 µM
MBNL1 % splicing rescue at 10 μM [2]: 71.0%

CN(C)CCOC(=O)c1ccc2nc(-c3ccc(-c4nc5ccc(C(=O)OCCN(C)C)cc5[nH]4)c(F)c3)[nH]c2c1 [Compound 270, bis(2-(dimethylamino)ethyl) 2,2′-(2-fluoro-1,4-phenylene)bis(1H-benzo[d]imidazole-6-carboxylate)]
IC50 ([1]; Table M): 5.81 µM
MBNL1 % splicing rescue at 10 μM [2]: −19.5%

[N-]=[N+]=NCCN1CCN(CCNC(=O)c2ccc3nc(-c4ccc(-c5nc6ccc(C(=O)NCCN7CCCCC7)cc6[nH]5)cc4)[nH]c3c2)CC1 [Compound 172, N-(2-(4-(2-azidoethyl)piperazin-1-yl)ethyl)-2-(4-(6-((2-(piperidin-1-yl)ethyl)carbamoyl)-1H-benzo[d]imidazol-2-yl)phenyl)-1H-benzo[d]imidazole-6-carboxamide]
IC50 ([1]; Table M): 28.3 µM
MBNL1 % splicing rescue at 1 μM [2]: 22.1%
MBNL1 % splicing rescue at 10 μM [2]: 14.2%

COc1cc(-c2nc3ccc(OCCCN(C)C)cc3[nH]2)c(O)cc1-c1nc2cc(OCCCN(C)C)ccc2[nH]1 [Compound 308]
IC50 ([1]; Table M): 1.8 µM
MBNL1 % splicing rescue at 10 μM [2]: −24.4%

O=C(NCCN1CCCCC1)c1ccc2nc(-c3ccc(-c4nc5ccc(C(=O)NCCN6CCCCC6)cc5[nH]4)c(F)c3)[nH]c2c1 [Compound 174]
IC50 ([1]; Table M): 4.32 µM
MBNL1 % splicing rescue at 1 μM [2]: 5.2%
MBNL1 % splicing rescue at 10 μM [2]: 1.9%

CN1CCC[C@H]1COc1ccc(-c2nc3cc(-c4ccc5[nH]c(-c6ccc(O)cc6)nc5c4)ccc3[nH]2)cc1 [Compound 357]
IC50 ([1]; Table M): 15.1 µM
MBNL1 % splicing rescue at 1 μM [2]: 1.1%
MBNL1 % splicing rescue at 10 μM [2]: 66.0%

CN(C)CCCOc1ccc2nc(-c3ccc(-c4nc5ccc(OCCCN(C)C)cc5[nH]4)c4c3OCO4)[nH]c2c1 [Compound 305]
IC50 ([1]; Table M): 7.6 µM
MBNL1 % splicing rescue at 10 μM [2]: 58.8%

CN(C)CCCOc1ccc(-c2nc3cc(-c4ccc5[nH]c(-c6ccc(C(=O)NCCCn7cc(COCCOCCOCCOCCN(C)C(=O)c8ccc(-c9nc%10cc(-c%11ccc%12[nH]c(-c%13ccc(C(=O)NCCN(C)C)cc%13)nc%12c%11)ccc%10[nH]9)cc8)nn7)cc6)nc5c4)ccc3[nH]2)cc1 [Compound 459]
IC50 ([1]; Table M): 27.3 µM
MBNL1 % splicing rescue at 5 μM [2]: −2.6%

CN1CCC[C@H]1COc1ccc(-c2nc3cc(-c4ccc5[nH]c(-c6ccc(OC[C@@H]7CCCN7C)cc6)nc5c4)ccc3[nH]2)cc1 [Compound 356]
IC50 ([1]; Table M): 30.4 µM
MBNL1 % splicing rescue at 1 μM [2]: 43.7%
MBNL1 % splicing rescue at 10 μM [2]: 59.2%

CN(C)CCCOc1c(F)cc2nc(-c3ccc(-c4nc5cc(F)c(OCCCN(C)C)c(F)c5[nH]4)cc3)[nH]c2c1F [Compound 273]
IC50 ([1]; Table M): 6.1 µM
MBNL1 % splicing rescue at 10 μM [2]: −15.3%

O=C(NCCN1CCCC1)c1ccc(-c2nc3cc(-c4ccc5[nH]c(-c6ccc(C(=O)NCCN7CCCC7)cc6)nc5c4)ccc3[nH]2)cc1 [Compound 115]
IC50 ([1]; Table L): 7.1 µM
MBNL1 % splicing rescue at 10 μM [2]: 57.5%

CN1CCC(COc2ccc(-c3nc4cc(-c5ccc6[nH]c(-c7ccc(OCC8CCN(C)CC8)cc7)nc6c5)ccc4[nH]3)cc2)CC1 [Compound 336]
IC50 ([1]; Table M): 8.03 µM
MBNL1 % splicing rescue at 1 μM [2]: 59.0%
MBNL1 % splicing rescue at 10 μM [2]: 77.0%

c1ccc(COc2ccc(-c3nc4cc(-c5ccc6[nH]c(-c7ccc(OCc8ccccn8)cc7)nc6c5)ccc4[nH]3)cc2)nc1 [Compound 352]
IC50 ([1]; Table M): 25.8 µM
MBNL1 % splicing rescue at 1 μM [2]: 3.1%
MBNL1 % splicing rescue at 10 μM [2]: 9.6%

CCOc1cc(-c2nc3cc(OCCCN(C)C)ccc3[nH]2)c(OCC)cc1-c1nc2cc(OCCCN(C)C)ccc2[nH]1 [Compound 314, (3-[[2-(4-[5-[3-(dimethylamino)propoxy]-1H-1,3-benzodiazol-2-yl]-2,5-diethoxyphenyl)-1H-1,3-benzodiazol-5-yl]oxy]propyl)dimethylamine]
IC50 ([1]; Table M): 19.8 µM
MBNL1 % splicing rescue at 10 μM [2]: 22.5%

O=C(NCCN1CCCCC1)c1ccc(-c2nc3cc(-c4ccc5[nH]c(-c6ccc(C(=O)NCCN7CCCCC7)cc6)nc5c4)ccc3[nH]2)cc1 [Compound 116]
IC50 ([1]; Table L): 5.3 µM
MBNL1 % splicing rescue at 10 μM [2]: 74.7%

CN(C)CCc1cn(-c2ccc3nc(-c4ccc(-c5nc6ccc(-n7cc(CCN(C)C)nn7)cc6[nH]5)cc4)[nH]c3c2)nn1 [Compound 221]
IC50 ([1]; Table M): 2.53 µM
MBNL1 % splicing rescue at 10 μM [2]: −2.5%

COc1cc(-c2nc3ccc(OCCCN(C)C)cc3[nH]2)c(OCc2ccccc2)cc1-c1nc2cc(OCCCN(C)C)ccc2[nH]1 [Compound 307, 3-((2-(2-(benzyloxy)-4-(5-(3-(dimethylamino)propoxy)-1H-benzo[d]imidazol-2-yl)-5-methoxyphenyl)-1H-benzo[d]imidazol-6-yl)oxy)-N,N-dimethylpropan-1-amine]
IC50 ([1]; Table M): 15.8 µM
MBNL1 % splicing rescue at 10 μM [2]: 18.1%

N=C(N)CCCOc1ccc2nc(-c3ccc(-c4nc5ccc(OCCCC(=N)N)cc5[nH]4)cc3)[nH]c2c1 [Compound 297]
IC50 ([1]; Table M): 9.7 µM
MBNL1 % splicing rescue at 10 μM [2]: −4.4%

CN(C)CCNC(=O)c1ccc2nc(-c3ccc(-c4nc5ccc(NC6=NCCN6)cc5[nH]4)cc3)[nH]c2c1 [Compound 149]
IC50 ([1]; Table L): 6.1 µM
MBNL1 % splicing rescue at 10 μM [2]: −1.1%
